Tested on: GABAA receptor α1 subunit
Assay: GABAAR α1 subunit expression by high-throughput flow cytometry in HEK 293T cells
Type: cell-based, human
Method: The neuronal viability was determined with membrane integrity by trypan blue exclusion method^12. The mean survival was determined by counting eight randomly selected, non-overlapping fields with each containing approximately 10-20 neurons (viable+nonviable) (n=4 different cultures). GABAAR expression was determined by the high-throughput flow cytometry. HEK 293T cells were transfected with human α1, β2 and γ2 subunit cDNAs at 1:1:1 ratio for 48 hours. The α1 subunit was chosen as readout. The anti-α1 antibody was directly conjugated with Alexa 488 (data are mean±SEM, n=4). The healthy population was gated.
HEK 293T cells were transfected with wt γ2 or γ2(Q390X) subunits in combination with al and […] subunits at 1:1:1 cDNA ratio for 48 hrs. […] The cells were either unpermeabilized for surface staining (FIG. 11A, 11C) or permeabilized for total staining (FIG. 11B, 11D). al subunits were probed with mouse anti-α1 subunit antibody conjugated with Alexa 647. The relative al subunit fluorescence intensity (FI) was normalized to the wild-type without celastrol treatment.

With `CC1=C(O)C(=O)C=C2C1=CC=C1[C@@]2(C)CC[C@@]2(C)[C@@H]3C[C@](C)(C(=O)O)CC[C@]3(C)CC[C@]12C` [Celastrol, 3-Hydroxy-9β,13α-dimethyl-2-oxo-24,25,26-trinoroleana-1(10),3,5,7-tetraen-29-oic acid] the cell death (HEK 293T dishes with 2 and 4 μm) was “Cell death was observed” and the “surface α1 subunits” value (HEK 293T, α1β2γ2, 0-8 μm for 4 hours) was “concentration dependently increased”.
